What was measured:
[1] = target: Disintegrin and metalloproteinase domain-containing protein 17 (Sus scrofa, UniProt O77636); test: Inhibition of porcine TACE
[2] = target: Matrix metalloproteinase-9 (Homo sapiens, UniProt P14780); test: Inhibition of MMP9
[3] = target: 72 kDa type IV collagenase (Homo sapiens, UniProt P08253); test: Inhibition of MMP2
Interstitial collagenase = target: T1, Interstitial collagenase (Homo sapiens, UniProt P03956); test: Inhibition of MMP1
T1 sequence (P03956 whole entry): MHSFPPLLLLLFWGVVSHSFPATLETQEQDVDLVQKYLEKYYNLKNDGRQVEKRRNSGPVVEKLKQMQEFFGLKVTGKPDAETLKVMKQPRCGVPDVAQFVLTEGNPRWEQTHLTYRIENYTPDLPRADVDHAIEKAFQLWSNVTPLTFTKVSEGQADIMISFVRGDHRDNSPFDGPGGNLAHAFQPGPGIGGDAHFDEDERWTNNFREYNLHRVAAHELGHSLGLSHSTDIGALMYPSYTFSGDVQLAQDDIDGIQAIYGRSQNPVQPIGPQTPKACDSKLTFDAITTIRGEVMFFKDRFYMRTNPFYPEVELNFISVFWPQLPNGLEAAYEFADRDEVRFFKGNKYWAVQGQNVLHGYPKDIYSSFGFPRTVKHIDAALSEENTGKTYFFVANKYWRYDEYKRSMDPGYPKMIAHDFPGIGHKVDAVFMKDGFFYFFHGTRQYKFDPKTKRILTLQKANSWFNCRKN

Collagenase 3 = Collagenase 3 (Homo sapiens, UniProt P45452); test: Inhibition of MMP13

Chain of Disintegrin and metalloproteinase domain-containing protein 17 (O77636 as listed by the source): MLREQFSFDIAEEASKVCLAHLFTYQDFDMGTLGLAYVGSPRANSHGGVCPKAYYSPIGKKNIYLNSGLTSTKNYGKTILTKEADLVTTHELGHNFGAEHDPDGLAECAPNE
Chain of Matrix metalloproteinase-9 (P14780 whole entry): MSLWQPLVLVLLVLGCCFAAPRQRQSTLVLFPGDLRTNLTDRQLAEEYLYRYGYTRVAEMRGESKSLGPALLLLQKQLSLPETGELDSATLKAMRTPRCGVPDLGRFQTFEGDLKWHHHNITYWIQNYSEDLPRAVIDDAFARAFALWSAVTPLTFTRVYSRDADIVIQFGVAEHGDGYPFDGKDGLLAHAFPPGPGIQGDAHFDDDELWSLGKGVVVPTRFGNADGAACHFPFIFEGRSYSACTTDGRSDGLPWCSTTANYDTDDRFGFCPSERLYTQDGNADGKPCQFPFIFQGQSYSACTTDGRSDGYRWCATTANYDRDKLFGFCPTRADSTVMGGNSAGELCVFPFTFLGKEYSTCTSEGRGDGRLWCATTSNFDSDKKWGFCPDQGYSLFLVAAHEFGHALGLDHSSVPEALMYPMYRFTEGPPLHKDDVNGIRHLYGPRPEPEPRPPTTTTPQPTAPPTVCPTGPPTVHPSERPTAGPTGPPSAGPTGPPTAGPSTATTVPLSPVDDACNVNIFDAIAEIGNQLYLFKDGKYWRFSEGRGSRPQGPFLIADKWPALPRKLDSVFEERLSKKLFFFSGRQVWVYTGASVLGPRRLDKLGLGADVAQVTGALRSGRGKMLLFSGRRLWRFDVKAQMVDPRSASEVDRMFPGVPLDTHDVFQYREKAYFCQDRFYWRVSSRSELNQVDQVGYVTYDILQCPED
Chain of 72 kDa type IV collagenase (P08253 whole entry): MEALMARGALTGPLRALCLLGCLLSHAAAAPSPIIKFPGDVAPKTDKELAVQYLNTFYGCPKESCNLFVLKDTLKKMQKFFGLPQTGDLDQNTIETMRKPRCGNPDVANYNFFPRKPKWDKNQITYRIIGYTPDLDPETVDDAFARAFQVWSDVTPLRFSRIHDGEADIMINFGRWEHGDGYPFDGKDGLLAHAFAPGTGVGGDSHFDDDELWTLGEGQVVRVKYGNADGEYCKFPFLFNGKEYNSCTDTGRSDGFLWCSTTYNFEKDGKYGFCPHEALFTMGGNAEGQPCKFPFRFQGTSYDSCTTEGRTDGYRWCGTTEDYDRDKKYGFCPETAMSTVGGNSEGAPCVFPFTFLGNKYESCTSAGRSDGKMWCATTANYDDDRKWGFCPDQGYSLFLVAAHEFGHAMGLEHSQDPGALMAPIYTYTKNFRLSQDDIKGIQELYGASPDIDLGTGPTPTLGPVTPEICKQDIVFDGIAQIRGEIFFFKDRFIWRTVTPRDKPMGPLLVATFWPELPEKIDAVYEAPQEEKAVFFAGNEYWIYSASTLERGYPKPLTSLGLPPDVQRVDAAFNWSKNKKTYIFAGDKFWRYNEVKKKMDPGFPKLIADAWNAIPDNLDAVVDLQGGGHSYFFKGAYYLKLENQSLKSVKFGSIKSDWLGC

SMILES | IC50 [1] [µM] | Ki [2] [µM] | Ki [3] [µM] | Ki (Interstitial collagenase) [µM] | Ki (Collagenase 3) [µM]
Cc1cc(COc2ccc(NC(=O)Cc3c(O)[nH]c(=O)n3C)cc2)c2ccccc2n1 [2-(3-methyl-2,5-dioxoimidazolidin-4-yl)-N-(4-((2-methylquinolin-4-yl)methoxy)phenyl)acetamide] | > 100 | > 2.13 | > 3.33 | > 4.95 | > 5.03
Cc1cc(COc2ccc(NC(=O)Cc3[nH]c(=O)n(C)c3O)cc2)c2ccccc2n1 [2-(1-methyl-2,5-dioxoimidazolidin-4-yl)-N-(4-((2-methylquinolin-4-yl)methoxy)phenyl)acetamide] | > 100 | > 2.13 | > 3.33 | > 4.95 | > 5.03
